Data set [1] can be described thus: Spreading test: 5 μl drop on glass plate, area covered after 30 min. Type of data set: physicochemical. To be noted: 25° C. The source says:
The following tests have been performed to measure and compare spreading properties of the composition prepared according to Example 1 (N) with Isopropyl Myristate (IPM) and Diethylene Glycol Monoethyl Ether (DGME), known from the state of art as spreading agents. All compositions acted as a carrier of an active insecticidal substance: clove oil (an insect repellent), S-Methoprene (biochemical pesticide interfering with an insect's lifecycle and preventing it from reaching maturity or reproducing) or Etofenprox (neurotoxic insecticide, which disturbs insect nervous systems).
Area (S) of the surface (cm^2) covered by the composition has been measured after 30 min. As an alternative spreading indicator one might also employ Emollient Skin Spreading Factor as defined by Croda (Croda DS-128, Emollient Skin Spreading Factor (1998)).
The following tests have been performed to measure and compare spreading properties of the composition prepared according to Example 1 with ectoparasiticidal compositions known from the state of art. As in the previous tests 5 μl drop of the composition has been applied in the middle of a glass plate at 25° C. Area of the surface (cm^2) covered by the composition has been measured after 30 min.

The subject of data set [2] is adult lice. To be noted: cited from earlier work.

Molecules are shown by their SMILES. Like-named read-outs stand apart in the source and are kept apart here.

In the case of `CCCCCCCCCCCCCC(=O)OC(C)C` [compound 10, Isopropyl Myristate], the “S, area of the surface covered by the composition (active substance carriers)” value in data set [1] came to 0.6 cm^2. Besides, the “Mortality of adult lice” value is “less than 20%” in data set [2] (concentration below 70% by weight) and 100% in data set [2] (concentration of over 80% by weight).

For the molecule `CCOCCOCCO` [compound 11, Diethylene Glycol Monoethyl Ether], the “S, area of the surface covered by the composition (active substance carriers)” value in data set [1] is reported as 0.6 cm^2.

(Values after patent publication US11464224B2, “Liquid spreading composition with ectoparasiticidal activity, a method and use thereof for combating ectoparasites in human and veterinary medicine, as well as in agricultural, horticultural and/or garden environments” (priority 2014, dated 2022).)
